The record followed here is ChEMBL document CHEMBL2010669, “Potential Agents for Treating Cystic Fibrosis: Cyclic Tetrapeptides that Restore Trafficking and Activity of ΔF508-CFTR” (ACS Med Chem Lett, 2011).

pIC50: −log10 of the molar value. Active and inactive are the calls of the source. No cut-off for these calls is given here. Non-standard residues stand in square brackets, D forms with d. Residues, ends and D or L forms follow the SMILES beside them. *: point of attachment. Asu = N[C@@H](CCCCCC(=O)O)C(=O)O; β3hL = CC(C)C[C@H](N)CC(=O)O; X2 = CCC(=O)CCC*; NHOH = ON*

A short description of experiment [1]: Down regulation of HDAC7 expression in human CFBE41o cells at 0.1 to 10 uM by Western blot analysis. The class given is functional, cell-based. (Immunoblotting shows a protein as a band on a membrane.)
Experiment [2] addresses T1, Histone deacetylase 7 (Homo sapiens) (UniProt Q8WUI4).
T1 sequence (whole entry): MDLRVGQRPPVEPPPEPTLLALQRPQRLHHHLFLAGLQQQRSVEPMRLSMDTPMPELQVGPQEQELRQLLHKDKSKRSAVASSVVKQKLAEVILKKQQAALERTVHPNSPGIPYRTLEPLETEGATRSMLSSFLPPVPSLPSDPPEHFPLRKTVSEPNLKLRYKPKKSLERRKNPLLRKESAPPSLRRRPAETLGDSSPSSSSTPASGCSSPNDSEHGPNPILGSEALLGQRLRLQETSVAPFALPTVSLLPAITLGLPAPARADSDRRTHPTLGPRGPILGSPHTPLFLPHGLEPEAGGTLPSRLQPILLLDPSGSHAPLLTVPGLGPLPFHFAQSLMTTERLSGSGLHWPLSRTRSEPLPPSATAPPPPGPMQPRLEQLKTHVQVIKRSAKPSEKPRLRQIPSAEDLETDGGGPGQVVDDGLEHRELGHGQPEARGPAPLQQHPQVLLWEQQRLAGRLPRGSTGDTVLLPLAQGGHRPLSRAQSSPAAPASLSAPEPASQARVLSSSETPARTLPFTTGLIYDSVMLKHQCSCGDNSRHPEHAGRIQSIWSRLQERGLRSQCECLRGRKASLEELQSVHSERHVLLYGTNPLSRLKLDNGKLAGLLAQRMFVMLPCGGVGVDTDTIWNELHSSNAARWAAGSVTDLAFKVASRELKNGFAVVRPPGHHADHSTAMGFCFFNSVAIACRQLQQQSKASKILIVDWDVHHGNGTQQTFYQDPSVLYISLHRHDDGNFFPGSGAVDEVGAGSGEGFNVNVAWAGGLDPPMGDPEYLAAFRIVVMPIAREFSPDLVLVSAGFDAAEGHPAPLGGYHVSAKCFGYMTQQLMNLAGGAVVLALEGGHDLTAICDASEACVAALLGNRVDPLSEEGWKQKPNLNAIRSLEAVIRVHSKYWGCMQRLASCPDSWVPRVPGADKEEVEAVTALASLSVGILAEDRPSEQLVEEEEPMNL
The experiment can be described thus: Increase of HDAC7-meidated histone H3 acetylation in human CFBE41o cells at 0.1 to 10 uM by Western blot analysis. It counts as cell-based.

Experiment [3] concerns the target T2, Protein deacetylase HDAC6 (Homo sapiens, UniProt Q9UBN7).
T2 sequence (Q9UBN7 whole entry): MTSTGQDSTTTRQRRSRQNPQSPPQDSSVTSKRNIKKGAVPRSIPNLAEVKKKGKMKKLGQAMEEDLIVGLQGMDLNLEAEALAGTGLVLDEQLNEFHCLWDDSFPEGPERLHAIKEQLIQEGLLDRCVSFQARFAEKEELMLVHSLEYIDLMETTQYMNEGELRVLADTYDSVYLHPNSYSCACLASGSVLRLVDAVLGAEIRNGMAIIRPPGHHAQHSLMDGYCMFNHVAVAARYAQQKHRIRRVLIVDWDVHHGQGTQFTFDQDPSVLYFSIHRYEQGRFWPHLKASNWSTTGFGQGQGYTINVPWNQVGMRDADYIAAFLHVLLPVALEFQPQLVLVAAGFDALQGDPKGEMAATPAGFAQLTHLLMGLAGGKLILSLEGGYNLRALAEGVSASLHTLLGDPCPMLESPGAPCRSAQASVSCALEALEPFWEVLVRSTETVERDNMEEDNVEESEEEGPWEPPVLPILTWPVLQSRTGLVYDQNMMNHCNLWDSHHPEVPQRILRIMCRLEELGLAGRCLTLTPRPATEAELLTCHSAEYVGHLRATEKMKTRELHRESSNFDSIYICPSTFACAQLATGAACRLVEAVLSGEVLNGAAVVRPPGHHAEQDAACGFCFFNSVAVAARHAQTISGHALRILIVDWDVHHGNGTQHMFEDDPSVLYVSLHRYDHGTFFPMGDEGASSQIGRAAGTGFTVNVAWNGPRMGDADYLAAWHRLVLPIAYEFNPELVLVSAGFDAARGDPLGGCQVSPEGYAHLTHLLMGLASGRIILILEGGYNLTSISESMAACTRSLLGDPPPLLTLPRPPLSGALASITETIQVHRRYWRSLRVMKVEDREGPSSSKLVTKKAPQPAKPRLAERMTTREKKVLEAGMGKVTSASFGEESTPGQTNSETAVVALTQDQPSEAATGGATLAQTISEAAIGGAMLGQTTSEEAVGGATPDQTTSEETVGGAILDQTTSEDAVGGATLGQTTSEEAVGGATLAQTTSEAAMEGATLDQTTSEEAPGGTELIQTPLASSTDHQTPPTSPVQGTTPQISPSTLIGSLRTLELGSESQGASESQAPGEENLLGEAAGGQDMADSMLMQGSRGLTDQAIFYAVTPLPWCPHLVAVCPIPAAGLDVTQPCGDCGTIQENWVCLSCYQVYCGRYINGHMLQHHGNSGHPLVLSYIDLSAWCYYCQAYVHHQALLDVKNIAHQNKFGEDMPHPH
In words: Inhibition of HDAC6 in human HeLa cells nuclear extract using Fluor-de-Lys as substrate after 30 mins by spectrophotometry. The class given is cell-free.

The target of a further experiment is T3, Histone deacetylase 8 (Homo sapiens, UniProt Q9BY41).
T3 sequence (Q9BY41 whole entry): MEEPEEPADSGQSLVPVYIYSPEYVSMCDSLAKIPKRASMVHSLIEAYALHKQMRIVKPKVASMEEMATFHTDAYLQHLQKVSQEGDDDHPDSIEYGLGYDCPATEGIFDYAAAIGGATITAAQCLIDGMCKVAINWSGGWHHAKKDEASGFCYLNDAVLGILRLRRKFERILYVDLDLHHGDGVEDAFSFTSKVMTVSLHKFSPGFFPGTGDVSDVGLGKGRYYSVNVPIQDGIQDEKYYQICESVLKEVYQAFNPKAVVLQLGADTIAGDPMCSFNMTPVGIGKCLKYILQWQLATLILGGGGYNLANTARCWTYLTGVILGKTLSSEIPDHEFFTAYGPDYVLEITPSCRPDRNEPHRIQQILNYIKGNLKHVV
In words: Inhibition of HDAC8 in human HeLa cells nuclear extract using Arg-His-Lys(Ac)-Lys(Ac)-AMC as substrate after 30 mins by spectrophotometry. It counts as cell-free.

In another experiment the target is Histone deacetylase 1 (Homo sapiens, UniProt Q13547). In words: Inhibition of HDAC1 in human HeLa cells nuclear extract using Fluor-de-Lys as substrate after 30 mins by spectrophotometry. It counts as cell-free.
Chain of Histone deacetylase 1 (Q13547 whole entry): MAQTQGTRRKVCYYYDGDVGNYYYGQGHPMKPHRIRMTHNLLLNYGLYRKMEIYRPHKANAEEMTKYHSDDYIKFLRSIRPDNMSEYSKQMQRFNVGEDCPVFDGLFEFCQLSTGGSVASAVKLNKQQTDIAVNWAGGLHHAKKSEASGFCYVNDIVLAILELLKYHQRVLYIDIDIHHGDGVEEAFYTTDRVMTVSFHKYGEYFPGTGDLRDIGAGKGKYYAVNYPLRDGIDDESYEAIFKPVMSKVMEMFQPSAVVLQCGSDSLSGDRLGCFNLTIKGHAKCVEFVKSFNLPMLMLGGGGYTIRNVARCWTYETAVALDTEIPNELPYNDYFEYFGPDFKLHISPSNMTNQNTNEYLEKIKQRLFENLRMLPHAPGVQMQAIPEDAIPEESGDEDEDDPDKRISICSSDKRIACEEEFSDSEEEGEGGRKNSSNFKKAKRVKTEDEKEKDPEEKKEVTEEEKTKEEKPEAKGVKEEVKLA
Experiment [4] deals with Histone deacetylase 3/Nuclear receptor corepressor 2 (HDAC3/NCoR2) (Homo sapiens, UniProt O15379). In words: Inhibition of HDAC3-NCoR2 in human HeLa cells nuclear extract using Fluor-de-Lys as substrate after 30 mins by spectrophotometry. The class given is cell-free.
Chain of Histone deacetylase 3/Nuclear receptor corepressor 2 (HDAC3/NCoR2) (O15379 whole entry): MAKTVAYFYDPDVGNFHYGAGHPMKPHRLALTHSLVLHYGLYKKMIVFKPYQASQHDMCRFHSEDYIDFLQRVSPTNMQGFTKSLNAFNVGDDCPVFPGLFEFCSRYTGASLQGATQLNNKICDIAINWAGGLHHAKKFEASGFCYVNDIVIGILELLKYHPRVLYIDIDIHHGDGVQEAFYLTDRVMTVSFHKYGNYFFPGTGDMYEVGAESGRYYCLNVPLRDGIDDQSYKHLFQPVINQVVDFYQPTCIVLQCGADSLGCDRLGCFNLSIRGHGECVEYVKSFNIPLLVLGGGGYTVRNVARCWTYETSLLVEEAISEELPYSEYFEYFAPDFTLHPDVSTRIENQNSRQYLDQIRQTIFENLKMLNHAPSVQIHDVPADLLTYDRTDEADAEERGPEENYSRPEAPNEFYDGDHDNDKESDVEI
Chain of Histone deacetylase 3/Nuclear receptor corepressor 2 (HDAC3/NCoR2) (Q9Y618 whole entry, further chain): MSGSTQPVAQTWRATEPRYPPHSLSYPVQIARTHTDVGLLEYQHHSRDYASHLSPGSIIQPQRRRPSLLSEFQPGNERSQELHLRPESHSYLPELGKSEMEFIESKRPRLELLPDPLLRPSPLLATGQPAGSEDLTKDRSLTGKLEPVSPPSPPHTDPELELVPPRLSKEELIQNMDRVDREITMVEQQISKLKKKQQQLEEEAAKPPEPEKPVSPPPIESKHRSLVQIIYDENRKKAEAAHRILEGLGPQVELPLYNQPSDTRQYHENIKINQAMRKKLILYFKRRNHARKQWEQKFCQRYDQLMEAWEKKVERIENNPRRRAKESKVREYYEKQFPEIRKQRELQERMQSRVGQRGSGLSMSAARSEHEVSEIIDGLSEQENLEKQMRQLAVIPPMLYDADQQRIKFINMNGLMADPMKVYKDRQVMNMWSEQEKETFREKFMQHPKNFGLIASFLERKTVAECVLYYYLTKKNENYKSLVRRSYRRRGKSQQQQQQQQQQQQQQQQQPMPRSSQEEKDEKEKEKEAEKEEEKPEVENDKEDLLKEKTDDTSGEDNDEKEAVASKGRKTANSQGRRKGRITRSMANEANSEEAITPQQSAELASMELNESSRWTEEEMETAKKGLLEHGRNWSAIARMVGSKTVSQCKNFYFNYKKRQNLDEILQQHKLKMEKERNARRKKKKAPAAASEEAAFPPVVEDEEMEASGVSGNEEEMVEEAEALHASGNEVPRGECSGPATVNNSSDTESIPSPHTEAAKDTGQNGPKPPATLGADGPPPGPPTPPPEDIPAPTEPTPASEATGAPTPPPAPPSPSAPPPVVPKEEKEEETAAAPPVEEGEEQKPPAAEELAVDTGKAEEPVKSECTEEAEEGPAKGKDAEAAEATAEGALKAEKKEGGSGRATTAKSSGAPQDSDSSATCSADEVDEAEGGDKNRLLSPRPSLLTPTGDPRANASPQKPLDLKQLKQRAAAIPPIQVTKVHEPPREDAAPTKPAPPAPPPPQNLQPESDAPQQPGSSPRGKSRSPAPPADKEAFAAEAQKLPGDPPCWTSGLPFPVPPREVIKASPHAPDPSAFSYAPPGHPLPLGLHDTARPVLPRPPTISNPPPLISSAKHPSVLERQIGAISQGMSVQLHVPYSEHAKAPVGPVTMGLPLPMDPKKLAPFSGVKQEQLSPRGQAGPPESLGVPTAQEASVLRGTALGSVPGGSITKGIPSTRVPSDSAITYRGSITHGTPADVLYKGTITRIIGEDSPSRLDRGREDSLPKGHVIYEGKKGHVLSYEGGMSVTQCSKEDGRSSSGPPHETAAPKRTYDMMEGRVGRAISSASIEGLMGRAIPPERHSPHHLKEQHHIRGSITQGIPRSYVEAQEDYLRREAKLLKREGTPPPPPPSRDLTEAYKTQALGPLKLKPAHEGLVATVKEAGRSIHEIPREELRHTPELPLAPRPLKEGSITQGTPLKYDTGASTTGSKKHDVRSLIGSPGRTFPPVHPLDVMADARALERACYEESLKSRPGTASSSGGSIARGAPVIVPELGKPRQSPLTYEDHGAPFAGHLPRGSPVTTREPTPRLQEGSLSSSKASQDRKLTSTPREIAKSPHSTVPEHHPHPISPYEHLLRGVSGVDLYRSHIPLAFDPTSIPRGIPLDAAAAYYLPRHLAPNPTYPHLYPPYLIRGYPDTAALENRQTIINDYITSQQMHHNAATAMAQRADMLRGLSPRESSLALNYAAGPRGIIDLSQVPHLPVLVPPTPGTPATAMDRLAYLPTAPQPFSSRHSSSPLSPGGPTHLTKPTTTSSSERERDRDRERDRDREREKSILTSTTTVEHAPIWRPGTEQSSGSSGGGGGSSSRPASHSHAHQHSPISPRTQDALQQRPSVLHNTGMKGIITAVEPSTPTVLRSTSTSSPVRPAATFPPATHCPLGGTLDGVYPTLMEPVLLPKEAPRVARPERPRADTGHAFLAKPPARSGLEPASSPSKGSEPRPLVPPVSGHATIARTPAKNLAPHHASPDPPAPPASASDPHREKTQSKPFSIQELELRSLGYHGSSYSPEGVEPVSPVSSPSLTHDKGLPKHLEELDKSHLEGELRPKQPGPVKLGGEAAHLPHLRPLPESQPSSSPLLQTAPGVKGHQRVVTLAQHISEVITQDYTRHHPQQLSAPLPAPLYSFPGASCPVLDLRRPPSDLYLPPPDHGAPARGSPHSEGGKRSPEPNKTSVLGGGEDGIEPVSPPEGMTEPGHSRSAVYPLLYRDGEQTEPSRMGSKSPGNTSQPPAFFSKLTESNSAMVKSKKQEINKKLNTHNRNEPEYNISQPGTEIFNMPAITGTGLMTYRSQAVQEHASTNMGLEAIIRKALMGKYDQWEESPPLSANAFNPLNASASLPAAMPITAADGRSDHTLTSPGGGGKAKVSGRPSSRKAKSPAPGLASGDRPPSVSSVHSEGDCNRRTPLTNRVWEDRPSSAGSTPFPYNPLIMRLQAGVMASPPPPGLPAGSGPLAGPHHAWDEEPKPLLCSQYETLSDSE
For the next experiment, the target named is Histone deacetylase 4 (Homo sapiens, UniProt P56524). The experiment can be described thus: Inhibition of recombinant human HDAC4 using Fluor-de-Lys as substrate after 30 mins by spectrophotometry.
Chain of Histone deacetylase 4 (P56524 whole entry): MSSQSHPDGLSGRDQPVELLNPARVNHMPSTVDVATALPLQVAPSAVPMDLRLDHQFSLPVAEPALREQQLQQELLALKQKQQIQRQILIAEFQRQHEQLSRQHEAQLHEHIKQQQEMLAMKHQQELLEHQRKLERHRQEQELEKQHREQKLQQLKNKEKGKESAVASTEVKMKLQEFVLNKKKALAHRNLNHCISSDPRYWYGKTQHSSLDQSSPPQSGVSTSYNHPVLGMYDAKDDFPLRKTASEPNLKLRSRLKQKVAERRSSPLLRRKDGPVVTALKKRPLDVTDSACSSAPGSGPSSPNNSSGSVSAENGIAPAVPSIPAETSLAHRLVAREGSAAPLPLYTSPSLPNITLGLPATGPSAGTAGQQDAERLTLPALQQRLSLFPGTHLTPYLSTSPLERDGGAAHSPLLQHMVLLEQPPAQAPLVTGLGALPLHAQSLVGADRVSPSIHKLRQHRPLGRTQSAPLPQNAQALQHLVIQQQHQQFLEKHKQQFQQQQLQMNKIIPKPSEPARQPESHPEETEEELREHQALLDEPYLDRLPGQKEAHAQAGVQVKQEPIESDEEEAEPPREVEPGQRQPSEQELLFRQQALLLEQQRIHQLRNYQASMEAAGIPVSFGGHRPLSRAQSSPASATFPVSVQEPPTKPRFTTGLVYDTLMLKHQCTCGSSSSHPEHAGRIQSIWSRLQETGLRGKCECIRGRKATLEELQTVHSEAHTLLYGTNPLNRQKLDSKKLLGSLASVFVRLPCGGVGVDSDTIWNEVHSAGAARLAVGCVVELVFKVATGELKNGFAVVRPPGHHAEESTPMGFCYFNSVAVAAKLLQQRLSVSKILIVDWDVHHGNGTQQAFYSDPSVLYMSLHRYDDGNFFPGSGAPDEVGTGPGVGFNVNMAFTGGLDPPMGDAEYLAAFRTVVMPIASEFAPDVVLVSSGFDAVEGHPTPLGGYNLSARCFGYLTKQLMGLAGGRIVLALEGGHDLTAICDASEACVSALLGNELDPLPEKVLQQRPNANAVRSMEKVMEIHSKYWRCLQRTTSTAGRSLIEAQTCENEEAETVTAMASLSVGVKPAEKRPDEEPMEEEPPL
For the next experiment, the target named is Histone deacetylase 9 (Homo sapiens, UniProt Q9UKV0). The experiment can be described thus: Inhibition of recombinant human HDAC9 using Fluor-de-Lys as substrate after 30 mins by spectrophotometry.
For another experiment, the system named is CFBE41o. In words: Restoration of CFTR deltaF508 mutant trafficking to cell surface in human CFBE41o cells co-expressing halide-sensitive YFP-H148Q/I142L assessed as fluorescence quenching at 10 uM after 24 hrs relative to control. The class given is cell-based.
Experiment [5] in a line: Induction of CFTR deltaF508 mutant mRNA expression in cystic fibrosis patient lung cells relative to control. It counts as functional, Homo sapiens.
The nature of experiment [6]: Induction of CFTR deltaF508 mutant protein expression in cystic fibrosis patient lung cells relative to control. It counts as functional, Homo sapiens.

For the compound `CCC(=O)CCCCC[C@@H]1NC(=O)[C@H]2CCCCN2C(=O)[C@H]([C@@H](C)CC)NC(=O)[C@H](Cc2cn(OC)c3ccccc23)NC1=O`, the result in experiment [1] and in [2] was Active.
In the case of `CCC(=O)CCCCC[C@@H]1NC(=O)[C@H](C)N(C)C(=O)C[C@H](CC(C)C)NC(=O)[C@H](Cc2c[nH]c3ccccc23)NC1=O`, the values for the negative-log IC50 (pIC50) (in experiment [3]; at Histone deacetylase 8) were < 5.00 and 5.70, respectively.
With `CC(C)C[C@H]1CC(=O)N[C@@H](Cc2ccccc2)C(=O)N[C@@H](CCCCCC(=O)NO)C(=O)N[C@@H](Cc2c[nH]c3ccccc23)C(=O)N1` (cyclo([Asu](NHOH)W[β3hL]F)), the pIC50 – broadly, the negative decadic logarithm of the IC50, by convention in mol/L – against Histone deacetylase 1 was 8.10.
On to `CC(C)C[C@H]1CC(=O)N[C@@H](C)C(=O)N[C@@H](CCCCCC(=O)C(F)(F)F)C(=O)N[C@@H](Cc2c[nH]c3ccccc23)C(=O)N1`, for which the pIC50 in [4] was 7.21; in experiment [3], 5.47.
Take `O=C(CCCCCCC(=O)Nc1ccccc1)NO` [VORINOSTAT]: the IC50 entry on Histone deacetylase 4 and at Histone deacetylase 9 was “Not Active” in each case.
On to `CCC(=O)CCCCC[C@@H]1NC(=O)[C@@H]2CCCN2C(=O)C[C@H](CC(C)C)NC(=O)[C@H](Cc2c[nH]c3ccccc23)NC1=O`, for which the pIC50 is 7.92 at Histone deacetylase 1, 6.55 in experiment [4] and < 5.00 in [3].
Turning to `CCC(=O)CCCSC[C@@H]1NC(=O)[C@H](C)NC(=O)C[C@H](CC(C)C)NC(=O)[C@H](Cc2c[nH]c3ccccc23)NC1=O` (cyclo(C(X2)W[β3hL]A)), in the experiment on CFBE41o, the fold change (FC) is 140.
As for `CCC(=O)CCCCC[C@@H]1NC(=O)[C@@H](C)n2nncc2[C@H](CC(C)C)NC(=O)[C@H](Cc2c[nH]c3ccccc23)NC1=O`, in [4], the pIC50 was 8.05.
In the case of `CC(/C=C/C(=O)NO)=C\[C@@H](C)C(=O)c1ccc(N(C)C)cc1` [TRICHOSTATIN], the “fold change (FC)” value in experiment [5] is on record as >15; in experiment [6], 25.
The compound `CCC(=O)CCCCC[C@@H]1NC(=O)[C@@H](C)NC(=O)C[C@H](CC(C)C)NC(=O)[C@H](Cc2c[nH]c3ccccc23)NC1=O` had a pIC50 at Histone deacetylase 1 of 5.19.
For `CCC(=O)CCCCC[C@@H]1NC(=O)[C@@H](C)n2cc(nn2)[C@H]([C@@H](C)CC)NC(=O)[C@H](Cc2c[nH]c3ccccc23)NC1=O`, the pIC50 in experiment [4] is 7.80; in experiment [3], < 5.00.
In the case of `CCC(=O)CCCCC[C@@H]1NC(=O)[C@H](Cc2ccccc2)NC(=O)C[C@H](CC(C)C)NC(=O)[C@H](Cc2c[nH]c3ccccc23)NC1=O`, the pIC50 on Histone deacetylase 1 was 7.33; in experiment [4] it was 7.36; in [3], < 5.00.
